# ChEMBL document CHEMBL1201862, “PubChem BioAssay data set” (2004)
# The source made the active and inactive calls.
# How the values were obtained:
# [1] = molecular target: Megakaryocyte-associated tyrosine-protein kinase (Homo sapiens, UniProt P42679); type: functional;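 note: affinity measured as one member of a kinase panel (Navigating the Kinome) against MATK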
# [2] = molecular target: Phosphorylase b kinase gamma catalytic chain, liver/testis isoform (Homo sapiens, UniProt P15735); type: functional;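 note: PHKG2 measured as one member of a kinome-wide kinase panel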
# [3] = molecular target: Ribosomal protein S6 kinase beta-1 (Homo sapiens, UniProt P23443); type: functional;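 note: measured as one member of a kinome-wide profiling panel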
# [4] = molecular target: Cell division cycle 7-related protein kinase (Homo sapiens, UniProt O00311); type: functional;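 note: value obtained from a kinome-wide kinase panel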
# [5] = molecular target: Tyrosine-protein kinase BTK (Homo sapiens, UniProt Q06187); type: functional
# [6] = molecular target: Serine/threonine-protein kinase PAK 1 (Homo sapiens, UniProt Q13153); type: functional
# [7] = molecular target: MAP/microtubule affinity-regulating kinase 3 (Homo sapiens, UniProt P27448); type: functional;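 note: MARK3 affinity measured as one member of a kinome panel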
# [8] = molecular target: Serine/threonine-protein kinase Chk1 (Homo sapiens, UniProt O14757); type: functional;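 note: measured as one member of a kinome-wide kinase profiling panel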
# [9] = molecular target: Ephrin type-A receptor 2 (Homo sapiens, UniProt P29317); type: functional;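 note: EPHA2 tested as one member of a kinome-wide kinase panel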
# [10] = molecular target: Serine/threonine-protein kinase Nek2 (Homo sapiens, UniProt P51955); type: functional
# [11] = molecular target: BDNF/NT-3 growth factors receptor (Homo sapiens, UniProt Q16620); type: functional;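 note: NTRK2 measured as one member of a broad kinome-wide kinase profiling panel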
# [12] = molecular target: Dual specificity protein kinase CLK4 (Homo sapiens, UniProt Q9HAZ1); type: functional
# [13] = molecular target: Polyadenylate-binding protein 1 (Homo sapiens, UniProt P11940); test: MLLE binding blockers, Cy5 peptide tracer – biochemical, fluorescence polarization, Cy5-PAM2 peptide, secondary, miRNA deadenylation inhibitor project, dose response (AID 602260); type: functional; conditions: read-out: IC50_Mean
# [14] = molecular target: T1, Corticotropin-releasing factor receptor 2/Corticotropin-releasing factor-binding protein (Homo sapiens, UniProt P24387+Q13324); test: Dose Response confirmation of uHTS hits for small molecule antagonists of the CRF-binding protein and CRF-R2 receptor complex.; type: functional; conditions: read-out: IC50_Mean
# T1 sequence (Q13324 whole entry): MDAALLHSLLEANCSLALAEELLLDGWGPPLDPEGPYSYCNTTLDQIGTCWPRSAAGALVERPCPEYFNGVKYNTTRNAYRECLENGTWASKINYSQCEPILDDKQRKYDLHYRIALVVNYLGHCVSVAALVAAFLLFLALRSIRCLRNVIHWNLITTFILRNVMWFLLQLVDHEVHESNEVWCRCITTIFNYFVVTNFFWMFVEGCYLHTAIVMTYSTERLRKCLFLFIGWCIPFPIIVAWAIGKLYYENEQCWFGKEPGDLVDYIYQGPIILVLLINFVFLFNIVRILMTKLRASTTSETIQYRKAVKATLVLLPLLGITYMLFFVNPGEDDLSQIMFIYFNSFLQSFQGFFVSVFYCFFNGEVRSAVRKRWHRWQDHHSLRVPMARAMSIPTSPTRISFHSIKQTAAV
# T1 sequence (P24387 whole entry): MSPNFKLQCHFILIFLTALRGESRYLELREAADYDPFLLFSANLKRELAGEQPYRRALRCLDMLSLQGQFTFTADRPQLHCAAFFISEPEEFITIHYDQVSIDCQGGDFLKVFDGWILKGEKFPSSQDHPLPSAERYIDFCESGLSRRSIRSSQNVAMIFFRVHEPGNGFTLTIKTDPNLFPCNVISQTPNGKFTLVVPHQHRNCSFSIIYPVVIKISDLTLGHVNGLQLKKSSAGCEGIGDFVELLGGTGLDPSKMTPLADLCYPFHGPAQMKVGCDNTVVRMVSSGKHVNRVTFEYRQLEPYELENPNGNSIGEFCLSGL
# [15] = molecular target: Caspase-8 (Homo sapiens, UniProt Q14790); test: inhibitors of purified CASP8 protease – biochemical, Z-IETD-R110 fluorescence, cherry-picked samples, selectivity assay for caspase-6 inhibitor project, dose response (AID 743294)
# [16] = molecular target: T2, Apoptotic protease-activating factor 1 (Homo sapiens, UniProt O14727); type: functional
# T2 sequence (O14727 whole entry): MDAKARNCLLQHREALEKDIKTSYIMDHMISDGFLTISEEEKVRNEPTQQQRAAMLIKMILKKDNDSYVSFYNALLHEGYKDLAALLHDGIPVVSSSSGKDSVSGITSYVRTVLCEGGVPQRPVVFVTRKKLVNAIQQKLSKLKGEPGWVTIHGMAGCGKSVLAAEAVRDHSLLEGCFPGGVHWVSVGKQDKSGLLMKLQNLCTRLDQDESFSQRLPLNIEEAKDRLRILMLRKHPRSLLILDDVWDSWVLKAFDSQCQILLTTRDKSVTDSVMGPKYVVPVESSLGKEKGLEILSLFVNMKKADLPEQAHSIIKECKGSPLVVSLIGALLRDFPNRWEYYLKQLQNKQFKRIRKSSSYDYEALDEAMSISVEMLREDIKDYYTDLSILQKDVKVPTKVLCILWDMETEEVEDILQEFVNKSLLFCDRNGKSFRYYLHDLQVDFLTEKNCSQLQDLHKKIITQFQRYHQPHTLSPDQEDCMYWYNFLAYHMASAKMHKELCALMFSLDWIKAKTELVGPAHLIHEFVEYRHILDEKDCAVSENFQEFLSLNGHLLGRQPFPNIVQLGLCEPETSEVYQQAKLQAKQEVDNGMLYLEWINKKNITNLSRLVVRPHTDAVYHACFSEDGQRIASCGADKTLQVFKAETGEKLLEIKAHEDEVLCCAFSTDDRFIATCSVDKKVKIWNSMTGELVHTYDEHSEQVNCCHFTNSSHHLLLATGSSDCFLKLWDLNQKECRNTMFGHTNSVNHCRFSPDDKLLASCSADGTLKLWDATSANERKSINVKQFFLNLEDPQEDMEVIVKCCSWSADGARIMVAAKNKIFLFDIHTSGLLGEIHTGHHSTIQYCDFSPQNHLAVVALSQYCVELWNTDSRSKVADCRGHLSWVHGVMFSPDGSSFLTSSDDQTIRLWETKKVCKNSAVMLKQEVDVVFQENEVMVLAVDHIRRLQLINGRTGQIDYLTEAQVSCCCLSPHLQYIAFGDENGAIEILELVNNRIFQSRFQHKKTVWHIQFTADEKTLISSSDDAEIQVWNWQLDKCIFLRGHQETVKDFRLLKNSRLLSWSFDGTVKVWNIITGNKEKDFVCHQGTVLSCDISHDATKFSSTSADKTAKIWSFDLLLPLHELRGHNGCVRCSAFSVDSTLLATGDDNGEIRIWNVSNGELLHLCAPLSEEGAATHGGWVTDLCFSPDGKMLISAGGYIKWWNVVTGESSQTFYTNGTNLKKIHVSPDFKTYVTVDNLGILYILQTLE
# Sequence of Cell division cycle 7-related protein kinase (O00311 whole entry): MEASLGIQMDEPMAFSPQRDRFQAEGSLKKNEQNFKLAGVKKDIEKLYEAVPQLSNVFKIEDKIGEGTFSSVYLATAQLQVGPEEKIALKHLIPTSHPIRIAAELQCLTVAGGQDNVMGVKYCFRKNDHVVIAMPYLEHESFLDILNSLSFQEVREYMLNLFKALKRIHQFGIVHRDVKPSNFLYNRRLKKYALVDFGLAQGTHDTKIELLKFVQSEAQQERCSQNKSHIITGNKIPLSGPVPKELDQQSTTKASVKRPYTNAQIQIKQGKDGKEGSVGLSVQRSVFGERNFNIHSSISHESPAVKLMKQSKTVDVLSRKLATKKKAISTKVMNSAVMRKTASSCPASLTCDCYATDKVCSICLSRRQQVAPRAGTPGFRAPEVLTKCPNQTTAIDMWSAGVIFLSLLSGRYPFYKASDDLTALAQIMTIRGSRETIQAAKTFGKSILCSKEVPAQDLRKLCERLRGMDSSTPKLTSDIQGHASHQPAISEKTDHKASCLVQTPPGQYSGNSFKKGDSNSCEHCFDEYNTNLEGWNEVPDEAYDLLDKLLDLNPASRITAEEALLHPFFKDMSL
# Sequence of BDNF/NT-3 growth factors receptor (Q16620 whole entry): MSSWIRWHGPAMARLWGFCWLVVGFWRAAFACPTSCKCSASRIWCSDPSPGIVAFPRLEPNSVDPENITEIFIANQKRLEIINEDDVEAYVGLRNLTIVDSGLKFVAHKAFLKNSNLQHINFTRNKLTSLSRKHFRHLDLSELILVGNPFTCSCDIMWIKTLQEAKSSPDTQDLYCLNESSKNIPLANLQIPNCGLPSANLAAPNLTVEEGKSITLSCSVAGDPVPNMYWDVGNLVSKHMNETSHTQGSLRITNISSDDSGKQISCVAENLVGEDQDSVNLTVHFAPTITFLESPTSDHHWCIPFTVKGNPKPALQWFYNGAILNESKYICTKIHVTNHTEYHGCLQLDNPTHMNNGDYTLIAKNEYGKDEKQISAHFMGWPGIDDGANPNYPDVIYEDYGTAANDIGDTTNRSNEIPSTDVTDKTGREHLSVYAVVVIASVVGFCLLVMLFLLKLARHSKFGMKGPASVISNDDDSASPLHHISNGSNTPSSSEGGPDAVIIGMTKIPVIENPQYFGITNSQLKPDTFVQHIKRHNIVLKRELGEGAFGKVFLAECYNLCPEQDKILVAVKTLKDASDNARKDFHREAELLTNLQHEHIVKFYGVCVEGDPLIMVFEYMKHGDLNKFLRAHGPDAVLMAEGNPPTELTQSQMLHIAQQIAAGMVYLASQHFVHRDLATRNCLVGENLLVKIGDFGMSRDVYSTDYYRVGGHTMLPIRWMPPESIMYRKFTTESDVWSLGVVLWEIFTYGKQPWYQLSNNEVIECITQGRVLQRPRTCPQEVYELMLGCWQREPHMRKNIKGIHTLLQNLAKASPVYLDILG
# Sequence of Megakaryocyte-associated tyrosine-protein kinase (P42679 whole entry, canonical isoform): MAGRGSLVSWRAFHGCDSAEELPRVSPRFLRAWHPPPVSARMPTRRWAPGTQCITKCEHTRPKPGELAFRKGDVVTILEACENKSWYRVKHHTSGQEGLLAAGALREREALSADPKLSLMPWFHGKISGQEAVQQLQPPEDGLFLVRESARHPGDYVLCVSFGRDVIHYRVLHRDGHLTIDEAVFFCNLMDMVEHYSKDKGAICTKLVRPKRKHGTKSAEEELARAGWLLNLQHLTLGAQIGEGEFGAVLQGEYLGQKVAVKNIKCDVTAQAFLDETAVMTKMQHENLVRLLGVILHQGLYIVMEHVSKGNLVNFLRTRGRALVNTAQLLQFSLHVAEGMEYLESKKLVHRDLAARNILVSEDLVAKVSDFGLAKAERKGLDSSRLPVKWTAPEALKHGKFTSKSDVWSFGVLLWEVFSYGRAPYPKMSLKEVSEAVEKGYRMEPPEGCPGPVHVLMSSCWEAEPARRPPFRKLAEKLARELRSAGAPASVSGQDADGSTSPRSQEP
# Sequence of Serine/threonine-protein kinase Chk1 (O14757 whole entry): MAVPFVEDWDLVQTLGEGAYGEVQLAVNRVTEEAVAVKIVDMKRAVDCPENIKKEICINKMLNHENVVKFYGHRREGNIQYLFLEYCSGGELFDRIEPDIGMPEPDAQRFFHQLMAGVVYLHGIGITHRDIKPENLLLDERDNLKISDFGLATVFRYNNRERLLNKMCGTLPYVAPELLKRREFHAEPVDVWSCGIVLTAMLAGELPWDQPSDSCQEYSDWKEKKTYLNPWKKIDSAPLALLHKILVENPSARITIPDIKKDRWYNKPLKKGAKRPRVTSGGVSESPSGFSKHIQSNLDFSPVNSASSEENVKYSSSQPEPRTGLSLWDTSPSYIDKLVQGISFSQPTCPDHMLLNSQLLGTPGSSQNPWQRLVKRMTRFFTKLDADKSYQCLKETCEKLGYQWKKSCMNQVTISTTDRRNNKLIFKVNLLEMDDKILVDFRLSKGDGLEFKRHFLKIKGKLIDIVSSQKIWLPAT
# Sequence of Polyadenylate-binding protein 1 (P11940 whole entry): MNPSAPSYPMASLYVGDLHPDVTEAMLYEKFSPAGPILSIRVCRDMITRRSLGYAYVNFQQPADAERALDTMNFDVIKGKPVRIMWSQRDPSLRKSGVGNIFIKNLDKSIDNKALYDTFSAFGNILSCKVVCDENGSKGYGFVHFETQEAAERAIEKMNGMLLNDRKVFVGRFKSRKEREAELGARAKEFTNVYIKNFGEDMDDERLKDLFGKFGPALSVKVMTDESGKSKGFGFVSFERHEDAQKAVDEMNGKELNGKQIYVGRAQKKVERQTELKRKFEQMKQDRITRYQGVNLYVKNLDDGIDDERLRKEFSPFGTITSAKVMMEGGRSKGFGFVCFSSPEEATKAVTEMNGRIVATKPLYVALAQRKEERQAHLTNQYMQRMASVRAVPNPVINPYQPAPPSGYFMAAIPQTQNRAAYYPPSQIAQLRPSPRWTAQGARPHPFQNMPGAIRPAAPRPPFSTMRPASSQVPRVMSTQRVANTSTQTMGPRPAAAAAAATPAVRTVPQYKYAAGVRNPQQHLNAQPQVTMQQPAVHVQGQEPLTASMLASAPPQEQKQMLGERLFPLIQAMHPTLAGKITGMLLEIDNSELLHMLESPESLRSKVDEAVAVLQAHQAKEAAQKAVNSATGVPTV
# Sequence of MAP/microtubule affinity-regulating kinase 3 (P27448 whole entry): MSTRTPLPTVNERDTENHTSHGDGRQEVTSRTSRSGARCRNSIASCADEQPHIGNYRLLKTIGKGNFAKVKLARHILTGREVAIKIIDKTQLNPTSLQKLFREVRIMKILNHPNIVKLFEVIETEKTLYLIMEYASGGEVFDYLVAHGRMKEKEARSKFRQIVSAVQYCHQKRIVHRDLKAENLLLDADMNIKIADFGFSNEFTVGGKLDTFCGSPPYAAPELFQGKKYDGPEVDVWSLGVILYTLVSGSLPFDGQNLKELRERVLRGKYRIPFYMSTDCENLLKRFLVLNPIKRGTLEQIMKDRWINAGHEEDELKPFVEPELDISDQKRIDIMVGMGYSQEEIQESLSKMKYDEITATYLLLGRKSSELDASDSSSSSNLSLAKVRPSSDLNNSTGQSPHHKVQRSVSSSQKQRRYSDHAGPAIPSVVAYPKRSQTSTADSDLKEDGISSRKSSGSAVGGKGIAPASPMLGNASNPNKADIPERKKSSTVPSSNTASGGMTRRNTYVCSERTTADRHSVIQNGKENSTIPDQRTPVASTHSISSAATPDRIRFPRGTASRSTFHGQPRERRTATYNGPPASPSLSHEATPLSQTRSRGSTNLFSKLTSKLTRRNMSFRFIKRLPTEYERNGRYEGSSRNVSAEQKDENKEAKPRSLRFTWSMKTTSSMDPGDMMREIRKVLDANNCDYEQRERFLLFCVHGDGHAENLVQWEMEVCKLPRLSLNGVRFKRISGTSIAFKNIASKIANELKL
# Sequence of Ribosomal protein S6 kinase beta-1 (P23443 whole entry): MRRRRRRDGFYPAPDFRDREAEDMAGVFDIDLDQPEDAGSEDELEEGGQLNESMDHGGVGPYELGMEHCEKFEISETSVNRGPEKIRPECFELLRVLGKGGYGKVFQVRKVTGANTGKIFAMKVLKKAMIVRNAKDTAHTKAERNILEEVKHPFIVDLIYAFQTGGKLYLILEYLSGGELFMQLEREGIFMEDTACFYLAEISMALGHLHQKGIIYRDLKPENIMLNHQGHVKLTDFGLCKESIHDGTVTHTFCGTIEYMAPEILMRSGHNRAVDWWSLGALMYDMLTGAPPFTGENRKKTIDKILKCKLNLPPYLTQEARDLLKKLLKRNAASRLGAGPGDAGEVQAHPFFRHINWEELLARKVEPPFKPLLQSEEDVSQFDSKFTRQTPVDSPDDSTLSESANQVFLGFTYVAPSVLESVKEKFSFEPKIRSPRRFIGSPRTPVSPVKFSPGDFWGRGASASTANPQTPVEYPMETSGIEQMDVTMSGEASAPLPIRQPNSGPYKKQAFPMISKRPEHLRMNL
# Sequence of Serine/threonine-protein kinase PAK 1 (Q13153 whole entry): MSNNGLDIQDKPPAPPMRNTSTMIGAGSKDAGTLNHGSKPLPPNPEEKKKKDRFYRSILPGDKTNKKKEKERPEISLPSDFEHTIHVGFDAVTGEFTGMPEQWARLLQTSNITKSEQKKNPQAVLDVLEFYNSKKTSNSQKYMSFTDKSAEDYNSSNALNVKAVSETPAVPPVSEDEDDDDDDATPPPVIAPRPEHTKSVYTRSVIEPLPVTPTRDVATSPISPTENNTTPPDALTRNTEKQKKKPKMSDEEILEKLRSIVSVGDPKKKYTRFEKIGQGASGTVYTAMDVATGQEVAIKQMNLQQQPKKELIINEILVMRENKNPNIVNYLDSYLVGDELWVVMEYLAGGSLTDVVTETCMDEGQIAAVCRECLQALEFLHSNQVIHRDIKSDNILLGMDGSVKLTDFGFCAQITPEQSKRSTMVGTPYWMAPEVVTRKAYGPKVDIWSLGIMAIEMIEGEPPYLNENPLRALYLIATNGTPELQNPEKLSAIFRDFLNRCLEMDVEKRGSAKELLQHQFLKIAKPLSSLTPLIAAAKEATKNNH
smiles,measurement,setting,value
Oc1c2ccccc2c2c3c(cccc13)N=N2 [SP-600125],Ki,[1],501 nM (active)
same,Ki,[2],631 nM (active)
same,Ki,[3],126 nM (active)
same,Ki,[4],1000 nM (active)
same,Ki,[5],> 1260 nM (inactive)
same,Ki,[6],> 10000 nM (inactive)
same,Ki,[7],3.98 nM (active)
same,Ki,[8],1260 nM (active)
same,Ki,[9],> 3160 nM (inactive)
same,Ki,[10],6310 nM (active)
same,Ki,[11],794 nM (active)
same,Ki,[12],63.1 nM (active)
same,IC50,[13],> 66000 nM (inactive)
O=C(COC(=O)c1ccc([N+](=O)[O-])s1)Nc1cccc(S(=O)(=O)/N=C2/CCCCCN2)c1,IC50,[14],> 47100 nM (inactive)
same,AC50,[15],21200 nM (active)
COc1ccc(C(C[N+](=O)[O-])c2c(C)[nH]n(-c3ccccc3)c2=O)cc1 (stereo unspecified),IC50,[16],14600 nM (active)
